The structures appear in SMILES notation.

The record followed here is patent publication US8278074B2, “L-glutamic acid-producing microorganism and a method for producing L-glutamic acid” (priority 2004, dated 2012).

Type in all cases: cell-based, Corynebacterium glutamicum
Test [1] has as its system mutant-type yggB gene-introduced strains (ATCC13869-L30 strain, ATCC13869-A1 strain). Put plainly: Resistance to 4-fluoroglutamic acid on a solid medium. The settings on record: minimum plate medium, 7.5 mM 4-fluoroglutamic acid, 31.5° C., compared with wild-type ATCC13869 strain (FIG. 6). The protocol: 4-fluoroglutamic acid solution which was adjusted to pH6.7 with NaOH and sterilized with filtration was added to the minimum medium described in Example 4 so that the final concentration of 4-fluoroglutamic acid was 7.5 mM. Each of the ATCC13869 strain, ATCC13869-L30 strain, and ATCC13869-A1 strain was spread over the CM-Dex plate and cultured overnight.

Another test relates to ATCC13869-A1 strain. Put plainly: Resistance to 4-fluoroglutamic acid in a liquid medium. The settings on record: minimum liquid medium, 1.25 mM to 20 mM 4-fluoroglutamic acid, 31.5° C., culture without 4-fluoroglutamic acid set to 1 (FIG. 7). As for the experimental part: (§1) 4-fluoroglutamic acid was added into the minimum liquid medium having the same composition as described in Example 4 but not containing agar to the final concentration of 1.25 mM, 2.5 mM, 5 mM, 10 mM, and 20 mM, respectively. Each of the ATCC13869 strain, ATCC13869ΔyggB strain, ATCC13869-L30 strain, and ATCC13869-A1 strain was spread over a CM-Dex plate and cultured at 31.5° C. overnight. Then, cells were collected, and after washing with the sterilized 0.85% NaCl solution, inoculated into the liquid medium and cultured at 31.5° C. with shaking. When the OD660 of each strain cultured without 4-fluoroglutamic acid reached 1.0, the culture was terminated and the obtained culture solution was diluted appropriately and spread over the CM-Dex plate overnight. The number of colonies which appeared were calculated and designated as a viable cell number.

The subject of another test is ATCC13869-L30 strain. The description is as above. To be noted: minimum liquid medium, 1.25 mM to 20 mM 4-fluoroglutamic acid, 31.5° C., culture without 4-fluoroglutamic acid set to 1 (FIG. 7). As for the experimental part: as §1

Regarding `N[C@@H](CC(F)C(=O)O)C(=O)O` (stereo partly drawn) [4-fluoroglutamic acid], the “growth in the presence of 4-fluoroglutamic acid” value in test [1] was “grow faster than wild-type ATCC13869 strain”. Moreover, the “sensitivity to 4-fluoroglutamic acid (relative viable cell number)” value with ATCC13869-A1 strain and in the test on ATCC13869-L30 strain was “decreased sensitivity” in each case.
